Source: publication PMC7186572, “Functional Identification and Structural Analysis of a New Lipoate Protein Ligase in Mycoplasma hyopneumoniae” (Frontiers in Cellular and Infection Microbiology, 2020)

Tests used:
Mhp-Lpl [1] = target: T1, Mhp-Lpl (Mesomycoplasma hyopneumoniae, UniProt Q4AA29); experiment: western blot of GcvH lipoylation with anti-lipoic acid antibody; assay type: biochemical; details: 1 mM lipoic acid, 5 mM ATP, 1 mM MgCl2, 5 mM DTT, 20 μM apo Mhp H as acceptor, pH 7.0, 37 °C, 4 h
T1 construct: gene lplA-1; full length, 343 residues, C-terminal His tag, pET32a NdeI/XhoI, synthetic E. coli codon-optimised gene (TGA to TGG), expressed in E. coli BL21(DE3), about 40 kDa
T1 sequence (Q4AA29 1-342 limits assumed): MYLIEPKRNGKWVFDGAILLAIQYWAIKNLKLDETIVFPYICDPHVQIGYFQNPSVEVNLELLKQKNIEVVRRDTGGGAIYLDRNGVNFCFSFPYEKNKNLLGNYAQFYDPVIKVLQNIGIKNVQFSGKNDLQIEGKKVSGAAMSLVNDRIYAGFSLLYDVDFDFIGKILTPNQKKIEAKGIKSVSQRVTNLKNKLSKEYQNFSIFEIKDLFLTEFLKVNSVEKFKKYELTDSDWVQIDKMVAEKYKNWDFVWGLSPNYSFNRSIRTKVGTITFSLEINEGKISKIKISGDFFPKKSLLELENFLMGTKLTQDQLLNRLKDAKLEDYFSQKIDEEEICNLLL

[2] = target: T2, large domain of Mhp-Lpl (ML) (Mesomycoplasma hyopneumoniae, UniProt Q4AA29); experiment: as above; assay type: biochemical; details: 1 mM lipoic acid, 5 mM ATP, 1 mM MgCl2, 5 mM DTT, 20 μM apo Mhp H as acceptor, pH 7.0, 37 °C, 4 h
T2 construct: gene lplA-1; large N-terminal domain, residues 1-254, C-terminal His tag, pET32a, expressed in E. coli BL21(DE3)
T2 sequence (Q4AA29 1-256 limits assumed): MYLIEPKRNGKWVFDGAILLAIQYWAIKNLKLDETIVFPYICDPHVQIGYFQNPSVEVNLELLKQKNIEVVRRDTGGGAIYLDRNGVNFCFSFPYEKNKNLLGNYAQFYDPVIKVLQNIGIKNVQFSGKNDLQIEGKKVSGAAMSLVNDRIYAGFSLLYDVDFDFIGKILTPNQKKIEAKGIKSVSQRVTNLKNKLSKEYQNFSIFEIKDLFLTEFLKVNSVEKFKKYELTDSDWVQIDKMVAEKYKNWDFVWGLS

E. coli LplA = target: T3, E. coli LplA (Escherichia coli, UniProt P32099); experiment: as above; assay type: biochemical; details: 1 mM lipoic acid, 5 mM ATP, 1 mM MgCl2, 5 mM DTT, 20 μM apo E. coli GcvH as acceptor, pH 7.0, 37 °C, 4 h
T3 construct: full length, C-terminal His tag, pET32a NdeI/XhoI, expressed in E. coli BL21(DE3)
T3 sequence (P32099 2-338): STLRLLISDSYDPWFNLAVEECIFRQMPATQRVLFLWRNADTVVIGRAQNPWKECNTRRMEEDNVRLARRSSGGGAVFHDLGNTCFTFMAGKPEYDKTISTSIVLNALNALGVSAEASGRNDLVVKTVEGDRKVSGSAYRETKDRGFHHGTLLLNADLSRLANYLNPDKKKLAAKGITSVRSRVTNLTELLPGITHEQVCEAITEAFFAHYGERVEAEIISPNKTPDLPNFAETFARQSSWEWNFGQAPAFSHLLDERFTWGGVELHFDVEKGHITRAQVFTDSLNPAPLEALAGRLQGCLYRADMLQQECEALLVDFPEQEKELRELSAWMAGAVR

Mhp-Lpl [3] = target: T1, Mhp-Lpl; experiment: X-ray crystallography, […] Å; assay type: binding; details: enzyme reacted with ATP and lipoic acid, then further purified and crystallised; partial occupancy; active site; reaction intermediate; an unidentified AMP-fatty acid co-purifies from E. coli

Structure (SMILES)	western blot of GcvH lipoylation with anti-lipoic acid antibody (Mhp-Lpl [1])	western blot of GcvH lipoylation with anti-lipoic acid antibody [2]	western blot of GcvH lipoylation with anti-lipoic acid antibody (E. coli LplA)	X-ray crystallography, 2.45 Å (Mhp-Lpl [3])
Nc1ncnc2c1ncn2[C@@H]1O[C@H](COP(=O)(O)OP(=O)(O)OP(=O)(O)O)[C@@H](O)[C@H]1O [ATP]	Mhp-Lpl catalyzes the ATP-dependent activation of lipoate to lipoyl-AMP	including activation of lipoic acid with ATP to form lipoyl-AMP	–	–
O=C(O)CCCC[C@@H]1CCSS1 (racemic) [lipoic acid]	lipoic acid was successfully transferred to the Mhp H protein by the MHP_RS01680-encoded protein	the large domain is able to catalyze Mhp H lipoylation	E. coli LplA could successfully transfer lipoic acid to E. coli GcvH	–
Nc1ncnc2c1ncn2[C@@H]1O[C@H](COP(=O)(O)OC(=O)CCCC[C@@H]2CCSS2)[C@@H](O)[C@H]1O [lipoyl-AMP]	–	–	–	lipoyl-AMP could be modeled into the density, despite its partial occupancy
